Assay results reported in patent publication US10357486B2, “Treatment of cognitive impairment with PDE4 inhibitor” (Universiteit Maastricht, priority 2013, dated 2019).
“Also recorded” adds a separate entry of the source. Marks after values point to notes of the source that are not given here.

What was measured:
[1] = tested on: healthy adults (18 to 35 years); assay: EEG Event Related Potentials (P600) during VLT in healthy adults; type: in vivo, human; conditions: single oral dose of 100 mcg
Description: Event Related Potential Analysis An electroencephalogram (EEG) cap was used to place a set of 32 EEG electrodes according to the international 10-20 system on the subjects. Event Related Potentials (ERPs) were extracted by averaging the responses within an epoch of 100 ms before and 1000 ms after stimulus onset covering P300, N400, and P600. Separate averages were made for correct and incorrect responses within a task and for different trial types. EEG measurements were done simultaneously with VLT testing. ERPs were calculated from the words that were called during immediate recall (encoding), and from the words that were recognized and from those that were not during the recognition condition at 45 minutes. The ERP components of P300, N400, and P600 were compared to examine whether the initial stimulus processing during the learning trials differs from word to word. Finally, ERPs to the old and new items during the recognition task were measured.
Tests of Within-Subjects Contrasts were regarded for immediate and delayed free recall scores and for the summed immediate recall score (i.e. immediate 1+immediate 2+immediate 3). The factor Treatment (4 levels; placebo, roflumilast 100 mcg, roflumilast 300 mcg and roflumilast 1000 mcg) was included as a within subjects factor. […] Peak and latency values of three memory related ERP's were analysed; i.e. P300, N400 and P600. […]

[2] = tested on: spatial memory in male C57BL/6NCrl mice; assay: Object Location Task (OLT), 24-hour retention interval; type: in vivo; conditions: for d2 index, discrimination index between the new and familiar objects for T2: given 3 hours after T1, T2 after 24 h, mean (SEM)
Description: The objective of this study was to evaluate the cognitive improvement effects of Roflumilast on spatial memory employing Object Location Task (OLT) in male C57BL/6NCrl mice. Roflumilast was compared with data of the already established PDE4 inhibitor Rolipram in the same model.
Maintenance of Animals Twenty-four 7 month-old male C57BL/6NCrl mice (Charles River, L'Arbresle, France) were used (average body weights: 27.6 g). The animals were kept under a 12/12-hour light/dark cycle (lights on from 07.00 pm to 07.00 am) with free access to food and water. All testing was done between 09.00 am and maximally 06.00 pm.
Preparation of Compounds for Administration Both rolipram (Sigma-Aldrich St. Louis, USA; MW 275.34) and roflumilast (Biocrea, Radebeul, Germany; MW 403.21) were dissolved in dimethylsulfoxide (DMSO) and kept at 4 ° C.; this stock solution was used for further dilutions in 0.5% methylcellulose. Each of rolipram and roflumilast is used in form of its free base. All injected solutions consisted of 0.5% methylcellulose with a fixed DMSO percentages (1.2%) (vehicle).
Object Location Task Studies in Rodents For the Object Location Task (OLT), doses of 0.01 mg/kg, 0.03 mg/kg and 0.1 mg/kg of Rolipram or Roflumilast or vehicle were administered subcutaneously (s.c.). Based on previous findings, PDE4 inhibitor single administration was performed 3 hours after the first trial as this has an optimum effect on object memory performance. The injection volume was 5 μl/g.
The OLT apparatus consisted of a circular arena, 40 cm in diameter. Half of the 40 cm transparent polyvinyl chloride wall was covered from the outside with white paper. Two objects were placed symmetrically about 10 cm away from the wall on the separation line, between the transparent and covered side of the arena. Four different sets of objects were available: (1) a cone made of brass (maximal diameter 6 cm and total height 3.8 cm), (2) a transparent glass bottle (diameter 2.7 cm, height 8.5 cm) filled with sand and water, (3) a massive metal cube (2.5 cm×5 cm×7.5 cm) with two holes (diameter 1.5 cm), and (4) a massive aluminum cube with a tapering top (4.5 cm×4.5 cm×8.5 cm).
A testing session comprised two trials of 4 minutes. Before each trial, mice were placed in an empty Makrolon cage (incubation cage) for the same amount of time as the trial (4 min). During the first trial (T1), two identical objects were placed symmetrically about 10 cm away from the wall on the separation line between the transparent and covered side of the arena. After the first exploration period of 4 min, the mouse was put back in its home cage. Mice then received treatment at 3 hours post T1. Subsequently, after a predetermined delay interval (24h), the mouse was placed in the apparatus for the second trial of 4 min (T2). Two identical objects as in T1 were used; one object was placed in the previously used position, whereas the other was placed in a novel position. The novel position of the object could either be a fixed distance towards the front or a fixed distance towards the back of the arena for both objects. The times spent exploring each object during T1 and T2 were recorded manually using a personal computer. All objects and locations were used in a balanced manner to exclude possible object and/or location preferences. To avoid olfactory cues, the objects were thoroughly cleaned with 70% ethanol after each trial. The testing order of conditions was determined randomly.
Statistical Data Analysis The measurements reflected the time spent by the mice in exploring each object during T1 and T2. The time spent in exploring the two identical samples in T1 were represented by ‘a1’ and ‘a2’, respectively. The time spent in exploring the sample and the new object in T2 were represented by ‘a’ and ‘b’, respectively. From these exploration times the following variables were calculated: e1, e2, and d2 (Table 1). The d2 index is a relative measure of discrimination corrected for exploratory activity. […]

Q: What does the source list for `O=C(Nc1c(Cl)cncc1Cl)c1ccc(OC(F)F)c(OCC2CC2)c1` [roflumilast, N-(3,5-dichloropyridin-4-yl)-3-cyclopropylmethoxy-4-difluoromethoxybenzamide]?
A: amplitude of Event-Related Potential P600 during VLT [1]: strongest increase of amplitude; amplitude of Event-Related Potential P600 during VLT ([1]; listed as Roflumilast): increased amplitude; d2 index, discrimination index between the new and familiar objects for T2 ([2]; 0.01 mg/kg s.c.): 0.04 (0.05); d2 index compared with the vehicle condition (post-hoc Bonferroni t-test) ([2]; 0.03 mg/kg s.c.): differed significantly from the vehicle condition; d2 index, discrimination index between the new and familiar objects for T2 ([2]; 0.03 mg/kg s.c.): 0.34 (0.03) ###; d2 index compared with zero (one-sample t-test) ([2]; 0.03 mg/kg s.c., after twenty-four hours): significantly differed from zero; d2 index, discrimination index between the new and familiar objects for T2 ([2]; 0.1 mg/kg s.c.): 0.00 (0.06); effect on spatial memory measured by the object location task test ([2]; single subcutaneous administration of 0.01 mg/kg): nearly no effect; effect on spatial memory measured by the object location task test ([2]; single subcutaneous administration of 0.03 mg/kg, 0.03 mg/kg): effective; also recorded: pronounced effect; effect on spatial memory measured by the object location task test ([2]; single subcutaneous administration of 0.1 mg/kg): completely no effect
